Assay [1] addresses Serotonin 1 (5-HT1) receptor (Rattus norvegicus, UniProt P28564+P30940+P19327+P28565). Description: Ancillary Binding affinity towards rat 5-hydroxytryptamine 1 receptor. The assay is classed as protein assay.
A short description of assay [2]: Ancillary Binding affinity towards rat 5-hydroxytryptamine 2 receptor.
Assay [3] has as its target T1, Alpha-1D adrenergic receptor (Homo sapiens, UniProt P25100).
T1 sequence (P25100 whole entry): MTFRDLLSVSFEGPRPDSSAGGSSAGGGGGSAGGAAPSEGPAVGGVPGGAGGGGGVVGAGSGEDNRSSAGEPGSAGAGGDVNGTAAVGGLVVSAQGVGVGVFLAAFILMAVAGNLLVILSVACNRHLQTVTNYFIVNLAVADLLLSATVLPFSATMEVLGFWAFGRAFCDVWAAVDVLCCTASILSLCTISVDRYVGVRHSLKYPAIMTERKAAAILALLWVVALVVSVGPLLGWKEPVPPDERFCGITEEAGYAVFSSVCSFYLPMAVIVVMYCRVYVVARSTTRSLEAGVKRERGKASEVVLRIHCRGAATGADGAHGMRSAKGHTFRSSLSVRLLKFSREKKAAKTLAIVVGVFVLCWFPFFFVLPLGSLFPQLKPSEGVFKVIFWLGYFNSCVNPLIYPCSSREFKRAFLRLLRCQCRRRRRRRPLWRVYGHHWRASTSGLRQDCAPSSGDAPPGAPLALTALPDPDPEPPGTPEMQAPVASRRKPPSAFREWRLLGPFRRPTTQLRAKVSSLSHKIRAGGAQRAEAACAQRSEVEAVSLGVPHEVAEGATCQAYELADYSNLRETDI
Description: Binding affinity towards human Alpha-1D adrenergic receptor.

The target in assay [4] is T2, Alpha-1B adrenergic receptor (Rattus norvegicus, UniProt P15823).
T2 sequence (P15823 whole entry): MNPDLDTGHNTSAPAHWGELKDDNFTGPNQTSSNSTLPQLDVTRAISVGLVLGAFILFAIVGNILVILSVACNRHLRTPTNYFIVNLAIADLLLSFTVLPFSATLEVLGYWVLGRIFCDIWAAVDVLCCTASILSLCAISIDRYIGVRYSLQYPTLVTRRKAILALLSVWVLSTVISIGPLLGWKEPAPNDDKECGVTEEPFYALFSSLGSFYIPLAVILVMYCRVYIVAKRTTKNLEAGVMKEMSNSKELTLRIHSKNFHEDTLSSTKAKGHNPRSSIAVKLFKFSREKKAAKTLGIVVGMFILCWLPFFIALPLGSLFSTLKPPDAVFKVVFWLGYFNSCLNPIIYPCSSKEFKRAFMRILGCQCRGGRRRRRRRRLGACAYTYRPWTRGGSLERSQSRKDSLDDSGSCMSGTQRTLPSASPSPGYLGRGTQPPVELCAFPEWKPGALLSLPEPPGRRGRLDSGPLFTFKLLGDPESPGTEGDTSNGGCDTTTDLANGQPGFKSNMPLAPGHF
Description: In vitro functional activity at Alpha-1B adrenergic receptor in rat spleen. The assay is classed as tissue-based. The note with it: read-out: pA2 (converted).

Assay [5] addresses T3, Alpha-1A adrenergic receptor (Bos taurus, UniProt P18130).
T3 sequence (P18130 whole entry): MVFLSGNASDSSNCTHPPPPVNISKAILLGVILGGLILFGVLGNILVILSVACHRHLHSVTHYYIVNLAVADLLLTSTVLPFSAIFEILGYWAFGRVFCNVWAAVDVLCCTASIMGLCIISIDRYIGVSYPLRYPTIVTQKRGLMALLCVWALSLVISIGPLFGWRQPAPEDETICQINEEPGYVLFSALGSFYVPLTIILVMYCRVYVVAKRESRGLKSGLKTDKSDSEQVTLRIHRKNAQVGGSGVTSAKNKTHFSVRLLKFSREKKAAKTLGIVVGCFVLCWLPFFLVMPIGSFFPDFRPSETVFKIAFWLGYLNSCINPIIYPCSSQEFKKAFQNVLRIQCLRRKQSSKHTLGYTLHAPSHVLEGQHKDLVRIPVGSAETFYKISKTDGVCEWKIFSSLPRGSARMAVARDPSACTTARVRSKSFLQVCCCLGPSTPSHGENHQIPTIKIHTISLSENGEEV
In words: Binding affinity towards bovine Alpha-1A adrenergic receptor.

Assay [6] has as its target T4, Alpha-2A adrenergic receptor (Homo sapiens, UniProt P08913).
T4 sequence (P08913 whole entry): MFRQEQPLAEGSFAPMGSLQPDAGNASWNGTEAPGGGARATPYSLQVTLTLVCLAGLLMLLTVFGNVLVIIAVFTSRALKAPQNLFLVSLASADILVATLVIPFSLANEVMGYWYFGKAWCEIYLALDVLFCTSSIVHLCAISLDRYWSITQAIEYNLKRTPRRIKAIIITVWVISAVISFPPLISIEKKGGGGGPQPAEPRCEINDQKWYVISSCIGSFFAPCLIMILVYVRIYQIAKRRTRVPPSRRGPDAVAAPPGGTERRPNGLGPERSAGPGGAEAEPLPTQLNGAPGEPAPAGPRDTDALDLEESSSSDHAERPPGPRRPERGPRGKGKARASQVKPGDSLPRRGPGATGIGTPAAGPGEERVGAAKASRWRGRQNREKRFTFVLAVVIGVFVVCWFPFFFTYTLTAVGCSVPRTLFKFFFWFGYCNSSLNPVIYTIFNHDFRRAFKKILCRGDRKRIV
Description: Ancillary Binding affinity towards cloned human Alpha-2A adrenergic receptor.

Assay [7] has as its target T5, Alpha-1A adrenergic receptor (Rattus norvegicus, UniProt P43140).
T5 sequence (P43140 whole entry): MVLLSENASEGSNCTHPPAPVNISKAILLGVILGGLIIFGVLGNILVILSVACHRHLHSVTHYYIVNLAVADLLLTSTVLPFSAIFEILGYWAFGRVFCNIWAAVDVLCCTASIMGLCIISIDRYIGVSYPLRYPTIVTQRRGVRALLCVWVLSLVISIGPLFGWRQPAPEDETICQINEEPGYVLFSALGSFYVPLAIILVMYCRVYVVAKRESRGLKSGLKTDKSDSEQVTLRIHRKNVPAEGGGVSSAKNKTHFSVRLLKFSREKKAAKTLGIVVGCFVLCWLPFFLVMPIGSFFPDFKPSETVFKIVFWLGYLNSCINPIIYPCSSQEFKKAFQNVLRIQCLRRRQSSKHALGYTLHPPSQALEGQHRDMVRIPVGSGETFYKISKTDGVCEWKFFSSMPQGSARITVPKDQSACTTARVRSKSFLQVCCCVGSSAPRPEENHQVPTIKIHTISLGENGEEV
In words: In vitro functional activity at Alpha-1A adrenergic receptor in rat vas deferens. The format is tissue-based. Particulars: read-out: pA2 (converted).

In another assay the target is D(1A) dopamine receptor (Rattus norvegicus, UniProt P18901). Description: Ancillary Binding affinity to rat Dopamine receptor D1.
Sequence of D(1A) dopamine receptor (P18901 whole entry): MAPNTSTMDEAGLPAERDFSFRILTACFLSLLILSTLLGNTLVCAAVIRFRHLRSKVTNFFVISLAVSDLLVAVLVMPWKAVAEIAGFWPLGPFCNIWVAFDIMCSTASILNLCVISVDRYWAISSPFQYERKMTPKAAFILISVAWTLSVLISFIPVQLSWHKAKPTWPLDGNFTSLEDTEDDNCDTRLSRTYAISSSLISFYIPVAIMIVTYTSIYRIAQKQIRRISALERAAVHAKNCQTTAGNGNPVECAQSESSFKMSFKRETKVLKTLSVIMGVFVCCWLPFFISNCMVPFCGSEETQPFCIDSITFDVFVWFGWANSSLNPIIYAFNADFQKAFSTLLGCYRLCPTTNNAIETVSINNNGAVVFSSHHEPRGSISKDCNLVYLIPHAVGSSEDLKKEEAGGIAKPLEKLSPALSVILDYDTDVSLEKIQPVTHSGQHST
In the next assay the target is D(2) dopamine receptor (Rattus norvegicus, UniProt P61169). Description: Ancillary Binding affinity towards rat Dopamine receptor D2.
Sequence of D(2) dopamine receptor (P61169 whole entry): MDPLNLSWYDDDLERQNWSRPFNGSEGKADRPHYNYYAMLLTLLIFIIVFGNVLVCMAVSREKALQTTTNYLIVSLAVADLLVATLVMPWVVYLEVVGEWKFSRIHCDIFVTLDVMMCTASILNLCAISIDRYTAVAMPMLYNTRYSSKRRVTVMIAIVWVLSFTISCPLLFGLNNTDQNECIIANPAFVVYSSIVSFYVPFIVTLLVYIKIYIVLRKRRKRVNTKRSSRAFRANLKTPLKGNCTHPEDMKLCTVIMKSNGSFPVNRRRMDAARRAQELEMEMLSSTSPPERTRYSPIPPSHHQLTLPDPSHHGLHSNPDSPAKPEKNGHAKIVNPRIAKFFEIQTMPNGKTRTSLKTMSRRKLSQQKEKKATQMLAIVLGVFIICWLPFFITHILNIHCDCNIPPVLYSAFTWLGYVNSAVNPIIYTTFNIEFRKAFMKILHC

For `COc1ccccc1N1CCN(CCn2c(=O)[nH]c3scc(-c4ccccc4)c3c2=O)CC1` [A-119637], the Ki turned out to be 5490 nM in [1]; 137 nM in assay [2]; 0.252 nM in assay [3]; 0.274 nM in assay [5]; 77.8 nM in assay [6]; 6090 nM on D(1A) dopamine receptor. Affinity at D(2) dopamine receptor was put at a Ki of 50 nM. The Kb in [4] is 2.04 nM; in [7] it was 8.51 nM.
Turning to `COc1ccccc1N1CCN(CCn2c(=O)[nH]c3scc(-c4cccc(C)c4)c3c2=O)CC1` [A-123189], the Ki in [1] was determined as 12300 nM; in assay [2], 2190 nM; in assay [3], 0.312 nM; in [5] it was 0.348 nM; in assay [6], 82.5 nM; on D(1A) dopamine receptor, 12300 nM. Further, the affinity at D(2) dopamine receptor, expressed as Ki, was 17 nM. Besides, the Kb in [4] is 1.74 nM; in [7] it was 4.37 nM.
